From patent US12241058B2, “Recombinant microbial system for directed evolution of glycocins and method of preparation thereof” (COUNCIL OF SCIENTIFIC & INDUSTRIAL RESEARCH, priority 2018, dated 2025)

Legend:
L. monocytogenes EGD-e = test: Agar diffusion test (ADT) of cell lysates, zone of growth inhibition, with PAS staining for glycosylation; type: cell-based, Listeria monocytogenes; settings: ADT against L. monocytogenes, cleavage buffer treated cell lysate, glycosylation by PAS staining
L. monocytogenes = test: Determination of the MIC against L. monocytogenes (96-well broth dilution); type: cell-based, Listeria monocytogenes; settings: Minimum Inhibitory Concentration against L. monocytogenes, 18 h at 37° C.
Protocol: One colony of an indicator strain (L. monocytogenes) was picked from an NB agar plate, inoculated to liquid NB medium and grown at 37° C., in a shaking incubator until OD^600 nm of 0.5 was reached. Then, the culture was diluted with NB medium and serial twofold dilutions with NB medium were made. Hundred microliters of Enterocin 96 solution (1 mg/ml in MQ) were transferred to a 96-well plate and mixed with 100 μl previously prepared cell suspension of sensitive strain. Similarly, positive control Nisin (1 mg/ml in MQ, Sigma Cat. # N5764), 100 μl mixture of NB medium with the Listeria, and negative controls (media alone, untreated indicator strain). 100 μL mixture of NB medium were prepared and dispersed in the same 96-well plates. The plate was incubated for 18 h at 37° C. in a shaking incubator. After incubation, the growth of bacteria was evaluated visually and by a plate reader. The analyses were performed in triplicate. Similarly, MIC of other variants of Enterocin 96 (neo-glycocins) was determined using above described method.

human red blood cells = test: Hemolytic assay; type: cell-based
Protocol: Samples were prepared within 3 h of performing the assay. Neo-glycocins stock solutions of 1 mg/ml were prepared by dissolving the neo-glycocins in PBS (10 mM phosphate buffer, pH 7.4); the samples were mixed by inversion to ensure neo-glycocins were completely dissolved in PBS. To prepare the Human Red Blood Cell (hRBC) solution, blood was collected from healthy individual and RBCs were isolated following standard procedure. Informed consent was acquired from all donors and this work was carried out in compliance with the ethical committee guidelines of CSIR-IMTECH with IEC NO SUIEC/14/03.
2 ml whole blood from healthy individual was centrifuged for 30 mins at 1000 rpm(4° C.). Layer of RBCs was collected and diluted with equal volume of 1×PBS and mixture was centrifuged three times for 10 mins at 1000 rpm, 4° C. To prepare 4% RBC solution, 1 ml of RBC were mixed with 24 ml 1×PBS. To examine the hemolysis property of neo-glycocins (75-1000 μM), 20 μl of freshly prepared neo-glycocins solution was mixed with 180 μl of freshly prepared hRBC solution and was placed at 37° C. for 1 h. A total of 20 μl of PBS buffer only and 20 μl of Triton X-100 1% (w/v) were mixed with 180 μl of hRBC solution as negative and positive controls, respectively. After 1 h of incubation, all samples were centrifuged at 2500 rpm for 10 min. A total of 100 μl of supernatant was collected, and the release of hemoglobin was monitored by measuring the absorbance of the supernatant at 570 nm with a Multiskan Go plate-reader (Thermo Scientific). Hemolysis percentage for each sample was calculated by dividing sample's absorbance on positive control absorbance (complete hemolysis) multiplied by 100.

THP-1 cells = test: Cytotoxicity MTT reduction assay; type: cell-based; settings: 50% cell death, THP-1 cells, MTT, 18-24 hours
Protocol: (§1) Cytotoxicity of Enterocin 96 and its variants (neo-glycocins) against THP-1 cells and anti-cancer potential against HepG2 cells was measured by the conventional MTT reduction assay. HepG2 and THP-1 cells (1×10^4 cells/well) were seeded into the 96-well plate and cultured at 37° C. in an atmosphere of 5% CO2 to allow them to adhere overnight. After 24 hours, the cells were exposed to Enterocin 96 and its variants (neo-glycocins) at various concentrations (75-1000 μM) for 18-24 hours. After the incubation period, 150 μl media and the suspended cells were discarded and washed with 200 μl PBS. After that, 200 μl of fresh media was added followed by 20 μl of MTT (5 mg/mL) into each well in the 96-well plate and incubated for 4 h in CO2 incubator. One hundred and fifty microlitres of medium with MTT was removed from every well and 100 μl DMSO was added to each well to solubilize the formazan crystal by incubating for 20 min in CO2 incubator. Finally, the plates were read at 570 nm by using Multiskan Go plate-reader (Thermo Scientific) and then percentage of cell viability was determined.

HepG2 cells = test: Anti-cancer MTT reduction assay; type: cell-based; settings: 50% cell (cancerous) death, HepG2 cells, MTT, 18-24 hours
Protocol: as §1

SEQ ID NO: 49: variant of Enterocin 96: MASKRDCNLMKACCAGHAVTYAIHSLLKRLGGDSSDPAGCNDIVRKYCK (Variant of Enterocin 96)
Zone of inhibition as well as glycosylation positive (L. monocytogenes EGD-e): positive
Zone of inhibition as well as glycosylation positive (L. monocytogenes EGD-e; listed as Q17H-N28K): Yes

SEQ ID NO: 43: variant of Enterocin 96: MASKRDCNLMKACCAGQAVTYAIQSLLNRLGGDSSDPAGCNDIVRKYCK (Variant of Enterocin 96)
Zone of inhibition as well as glycosylation positive (L. monocytogenes EGD-e): positive
Zone of inhibition as well as glycosylation positive (L. monocytogenes EGD-e; listed as H24Q): Yes

SEQ ID NO: 51: variant of Enterocin 96: MASKHDCNLMKACCAGQAVTYAIHSLLNRLGGDSSDPAGCNDIVRKYCK (Variant of Enterocin 96)
Zone of inhibition as well as glycosylation positive (L. monocytogenes EGD-e): positive
Zone of inhibition as well as glycosylation positive (L. monocytogenes EGD-e; listed as R5H): Yes

SEQ ID NO: 58: variant of Enterocin 96: MASKRDCNLMKACCAGQAVTYAIHSLLNRLGGDSGDPAGCNDIVRKYCK (Variant of Enterocin 96)
Zone of inhibition as well as glycosylation positive (L. monocytogenes EGD-e): neither showed any bioactivity nor glycosylation

SEQ ID NO: 57: variant of Enterocin 96: MASKRDCNLMKACCAGQAVTYAIHSLLNRLGGDSSDWRCK (Variant of Enterocin 96)
Zone of inhibition as well as glycosylation positive (L. monocytogenes EGD-e): neither showed any bioactivity nor glycosylation

SEQ ID NO: 55: variant of Enterocin 96: MASKRDCNLMKACCAGQAVTYAIHSLLNRLGGNSSDPAGCNDIVRKYCK (Variant of Enterocin 96)
Zone of inhibition as well as glycosylation positive (L. monocytogenes EGD-e): neither showed any bioactivity nor glycosylation

SEQ ID NO: 44: variant of Enterocin 96: MASKRDCNLMKARCAGQAVTYAIHSLLNRLGGDSSDPAGCNDIVRKYCK (Variant of Enterocin 96)
Zone of inhibition as well as glycosylation positive (L. monocytogenes EGD-e): positive
Zone of inhibition as well as glycosylation positive (L. monocytogenes EGD-e; listed as C13R): Yes

SEQ ID NO: 59: variant of Enterocin 96: MASKRDCNLMKACCAGQAVTYAIHSLLNRLGGDSSEPAGCNDIVRKYCK (Variant of Enterocin 96)
Zone of inhibition as well as glycosylation positive (L. monocytogenes EGD-e): neither showed any bioactivity nor glycosylation

SEQ ID NO: 54: variant of Enterocin 96: MASKRDCNLMKACCAGQAVTYAIHSLLNRLGGDPSDPAGCNDIVRKYCK (Variant of Enterocin 96)
Zone of inhibition as well as glycosylation positive (L. monocytogenes EGD-e): neither showed any bioactivity nor glycosylation

SEQ ID NO: 46: variant of Enterocin 96: MASKRDCNLMKACCAEQAVTYAIHSLLNRLGGDSSDPAGCNDIVRKYCK (Variant of Enterocin 96)
Zone of inhibition as well as glycosylation positive (L. monocytogenes EGD-e): positive

SEQ ID NO: 56: variant of Enterocin 96: MASKRDCNLMKACCAGQAVTYAIHSLLNRLGGDFSDPAGCNDIVRKYCK (Variant of Enterocin 96)
Zone of inhibition as well as glycosylation positive (L. monocytogenes EGD-e): neither showed any bioactivity nor glycosylation

SEQ ID NO: 53: variant of Enterocin 96: MASKRDCNLMKACCAGLAVTYAIHSLLNRLGGDSSDPAGCNDIVRKYCK (Variant of Enterocin 96)
Zone of inhibition as well as glycosylation positive (L. monocytogenes EGD-e): positive
Zone of inhibition as well as glycosylation positive (L. monocytogenes EGD-e; listed as Q17L): Yes

SEQ ID NO: 47: variant of Enterocin 96: MASKRDCNLMKACCAGQAVTYAIHSLLNRLGGDSSVPAGCNDIVRKYCK (Variant of Enterocin 96)
Zone of inhibition as well as glycosylation positive (L. monocytogenes EGD-e): positive
Zone of inhibition as well as glycosylation positive (L. monocytogenes EGD-e; listed as D36V): Yes

variant of Enterocin 96: MASKACCAGQAVTYAIHSLLNRLGGDSSDPAGCNDIVRKYCK (Variant of Enteriocin 96) [SEQ ID NO: 41]
Zone of inhibition as well as glycosylation positive (L. monocytogenes EGD-e): positive
Zone of inhibition as well as glycosylation positive (L. monocytogenes EGD-e; listed as ECT): Yes
Anti-bacterial activity (MIC in μM) (L. monocytogenes): >0.54 µM
Hemolysis (MHC in μM) (human red blood cells): 600 µM
IC50 (THP-1 cells): 309.4 ± 0.388 µM
IC50 (HepG2 cells): 167 ± 0.122 µM

variant of Enterocin 96: MASKRDCNLMKACCAGQAVTYAIHSLLNRLGGDSSGPAGCNDIVRKYCK (Variant of Enterocin 96) [SEQ ID NO: 42]
Zone of inhibition as well as glycosylation positive (L. monocytogenes EGD-e): positive
Zone of inhibition as well as glycosylation positive (L. monocytogenes EGD-e; listed as D36G): Yes
Anti-bacterial activity (MIC in μM) (L. monocytogenes): >0.54 µM
Hemolysis (MHC in μM) (human red blood cells): 600 µM
IC50 (THP-1 cells): 279.3 ± 0.0769 µM
IC50 (HepG2 cells): 204.2 ± 0.134 µM

SEQ ID NO: 52: variant of Enterocin 96: MASKRDCNLMKACCAGQAVTYGIHSLLNRLGGDSSDPAGCNDIVRKYCK (Variant of Enterocin 96)
Zone of inhibition as well as glycosylation positive (L. monocytogenes EGD-e): positive
Zone of inhibition as well as glycosylation positive (L. monocytogenes EGD-e; listed as A22G): Yes

variant of Enterocin 96: MASKRDCNLMKACCAEQAVTYAIQSLLNRLGGDSSDPAGCNDIVRKYCK (Variant of Enterocin 96) [SEQ ID NO: 45]
Zone of inhibition as well as glycosylation positive (L. monocytogenes EGD-e): positive
Zone of inhibition as well as glycosylation positive (L. monocytogenes EGD-e; listed as G16E-H24L): Yes
Anti-bacterial activity (MIC in μM) (L. monocytogenes): >0.54 µM
Hemolysis (MHC in μM) (human red blood cells): 600 µM
IC50 (THP-1 cells): 167.3 ± 1.39 µM
IC50 (HepG2 cells): 222.3 ± 0.11 µM

SEQ ID NO: 48: variant of Enterocin 96: MASKRDCNLMKACCAGQAVTYAIHSLLYRLGGDSSDPAGCNDIVRKYCK (Variant of Enterocin 96)
Zone of inhibition as well as glycosylation positive (L. monocytogenes EGD-e): positive
Zone of inhibition as well as glycosylation positive (L. monocytogenes EGD-e; listed as N28Y): Yes

SEQ ID NO: 50: variant of Enterocin 96: MASKRDCNLMKACCAGQAVTYAIHSLLNRLGGDSSDPAGSNDIVRKYCK (Variant of Enterocin 96)
Zone of inhibition as well as glycosylation positive (L. monocytogenes EGD-e): positive
Zone of inhibition as well as glycosylation positive (L. monocytogenes EGD-e; listed as C40S): Yes
